# Results from patent US11554118B2 (priority 2017, dated 2023).
# Like-named read-outs stand apart in the source and are kept apart here.
# What was measured:
# [1] = biological target: BTK (Homo sapiens (Human), UniProt Q06187); test: biochemical
# Experimental: Btk kinase activity was determined using a homogenous time resolved fluorescence (HTRF) methodology. Measurements were performed in a reaction volume of 15 μL using 384-well assay plates. Kinase enzyme, inhibitor, ATP and 1 M peptide substrate were incubated in a reaction buffer compose of Hepes 50 mM (pH7.0), NaN3 0.02%, BSA 0.01%, Orthocanadate 0.1 mM. […] For each compound, enzyme activity as measured at various concentrations of compound, Negative control reactions were performed in the absence of inhibitor in two replicates and eight no enzyme controls were used to determine baseline fluorescence levels.
# [2] = biological target: Btk (Mus musculus (Mouse), UniProt P35991); test: Btk occupancy in vivo (PCI-33380 labeling of PBMCs or splenocytes); design: species or system BALB/c mice; details: Babc/L mice, after 4 hours
# Sequence of Btk (P35991 whole entry, looked up): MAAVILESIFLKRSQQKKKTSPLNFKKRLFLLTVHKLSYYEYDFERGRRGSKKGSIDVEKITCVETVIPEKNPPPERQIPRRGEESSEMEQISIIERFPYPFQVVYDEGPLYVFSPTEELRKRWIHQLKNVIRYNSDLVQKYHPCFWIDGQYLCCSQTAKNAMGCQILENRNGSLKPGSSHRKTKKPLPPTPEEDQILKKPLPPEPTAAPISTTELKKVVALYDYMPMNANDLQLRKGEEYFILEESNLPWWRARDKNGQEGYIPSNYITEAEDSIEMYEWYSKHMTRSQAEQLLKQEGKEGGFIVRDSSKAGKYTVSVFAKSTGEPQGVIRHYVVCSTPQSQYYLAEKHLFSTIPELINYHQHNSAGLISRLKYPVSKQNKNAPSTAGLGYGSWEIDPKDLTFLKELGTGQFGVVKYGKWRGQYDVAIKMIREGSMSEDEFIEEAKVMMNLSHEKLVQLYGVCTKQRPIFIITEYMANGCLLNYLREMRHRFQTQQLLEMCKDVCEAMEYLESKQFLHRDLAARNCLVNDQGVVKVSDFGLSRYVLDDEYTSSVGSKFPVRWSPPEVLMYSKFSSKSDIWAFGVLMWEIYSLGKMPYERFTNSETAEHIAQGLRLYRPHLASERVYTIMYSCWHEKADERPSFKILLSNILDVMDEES
# Experimental: For analysis of Btk occupancy in Babc/L mice following oral dosing of compounds after 4 hours. Isolating peripheral blood mononuclear cells (PBMCs) with mouse peripheral blood separation kit (Hao Yang Biological Manufacture CO., LTD, Tianjin) were collected from Babc/L mice (1 ml blood from two mice). Spleens were processed to splenocytes followed by 5 min incubation in red blood cell lysing buffer (from mouse peripheral blood separation kit).
# Sequence of BTK (Q06187 whole entry, looked up, species assumed): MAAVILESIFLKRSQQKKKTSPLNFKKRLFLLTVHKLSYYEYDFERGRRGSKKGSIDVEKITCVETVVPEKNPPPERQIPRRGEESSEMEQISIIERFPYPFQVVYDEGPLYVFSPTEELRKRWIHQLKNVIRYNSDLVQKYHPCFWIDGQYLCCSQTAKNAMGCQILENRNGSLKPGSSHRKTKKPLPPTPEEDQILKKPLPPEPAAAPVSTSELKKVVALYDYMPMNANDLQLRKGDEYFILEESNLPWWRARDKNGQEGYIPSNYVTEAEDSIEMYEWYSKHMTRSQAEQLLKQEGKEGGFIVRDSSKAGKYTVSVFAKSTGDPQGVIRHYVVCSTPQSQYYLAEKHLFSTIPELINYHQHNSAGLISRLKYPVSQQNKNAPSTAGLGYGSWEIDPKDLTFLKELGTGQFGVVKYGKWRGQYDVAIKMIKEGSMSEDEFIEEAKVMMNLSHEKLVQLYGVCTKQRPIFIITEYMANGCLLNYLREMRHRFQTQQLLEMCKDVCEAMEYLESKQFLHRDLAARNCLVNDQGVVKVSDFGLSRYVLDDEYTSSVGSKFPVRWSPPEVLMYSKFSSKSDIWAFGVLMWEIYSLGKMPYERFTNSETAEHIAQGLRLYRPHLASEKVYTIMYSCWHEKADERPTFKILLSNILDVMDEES
compound,measurement,setting,value
"CC#CC(=O)N1CC[C@@H](c2nc(-c3ccc(C(=O)Nc4cc(C(F)(F)F)ccn4)cc3)c3cncc(OCC)n23)C1 [Compound 196, (R)-4-(3-(1-(but-2-ynoyl)pyrrolidin-3-yl)-5-ethoxyimidazo[1,5-a]pyrazin-1-yl)-N-(4-(trifluoromethyl)pyridin-2-yl)benzamide]",IC50,[1],100 to 1000 nM
"C=CC(=O)N1CCC[C@H]1c1nc(-c2ccc(C(=O)Nc3cc(C(F)(F)F)ccn3)cc2)c2cncc(OCC)n12 [Compound 204, (S)-4-(3-(1-acryloylpyrrolidin-2-yl)-5-ethoxyimidazo[1,5-a]pyrazin-1-yl)-N-(4-(trifluoromethyl)pyridin-2-yl)benzamide]",IC50,[1]; read-out: BTK Inhibition,< 10 nM
"C=CC(=O)N1CC[C@@H](c2nc(-c3ccc(C(=O)Nc4cc(C(F)(F)F)ccn4)cc3F)c3cncc(OCC)n23)C1 [Compound 197, (R)-4-(3-(1-acryloylpyrrolidin-3-yl)-5-ethoxyimidazo[1,5-a]pyrazin-1-yl)-3-fluoro-N-(4-(trifluoromethyl)pyridin-2-yl)benzamide]",IC50,[1]; read-out: BTK Inhibition,< 10 nM
"C=CC(=O)N1CCC[C@H]1c1nc(-c2ccc(Oc3cccc(OC)c3F)cc2)c2cnccn12 [Compound 30, (S)-1-(2-(1-(4-(2-fluoro-3-methoxyphenoxy)phenyl)imidazo[1,5-a]pyrazin-3-yl)pyrrolidin-1-yl)prop-2-en-1-one]",Btk occupancy in vivo,[2]; 5 mg/kg single oral dose,full occupancy
"CC#CC(=O)N1CC[C@@H](c2nc(-c3ccc(C(=O)Nc4cc(C(F)(F)F)ccn4)cc3F)c3cncc(OCC)n23)C1 [Compound 198, (R)-4-(3-(1-(but-2-ynoyl)pyrrolidin-3-yl)-5-ethoxyimidazo[1,5-a]pyrazin-1-yl)-3-fluoro-N-(4-(trifluoromethyl)pyridin-2-yl)benzamide]",IC50,[1],10 to 100 nM
"C=CC(=O)N1CCCC[C@H]1c1nc(-c2ccc(Oc3cccc(OC)c3F)cc2)c2c(C)nccn12 [Compound 27, (S)-1-(2-(1-(4-(2-fluoro-3-methoxyphenoxy)phenyl)-8-methylimidazo[1,5-a]pyrazin-3-yl)piperidin-1-yl)prop-2-en-1-one]",Btk occupancy in vivo,[2]; 10 mg/kg single oral dose,full occupancy
"C=CC(=O)N1CCC[C@@H](c2nc(-c3ccc(Oc4cccc(OC)c4F)cc3)c3cnccn23)C1 [Compound 1, (R)-1-(3-(1-(4-(2-fluoro-3-methoxyphenoxy)phenyl)imidazo[1,5-a]pyrazin-3-yl)piperidin-1-yl)prop-2-en-1-one]",Btk occupancy in vivo,[2]; 5 mg/kg single oral dose,full occupancy
"CC#CC(=O)N1CCC[C@H]1c1nc(-c2ccc(C(=O)Nc3cc(C(F)(F)F)ccn3)cc2)c2cncc(OCC)n12 [Compound 203, (S)-4-(3-(1-(but-2-ynoyl)pyrrolidin-2-yl)-5-ethoxyimidazo[1,5-a]pyrazin-1-yl)-N-(4-(trifluoromethyl)pyridin-2-yl)benzamide]",IC50,[1],100 to 1000 nM
